Laboratory results published in patent US20100189819A1, “NEURO-DEGENERATIVE INHIBITOR, NEURO-ENDOCRINE MODULATOR, AND NEURO-CEREBRAL METABOLISM ENHANCER” (INTRATHERAPIES LLC, priority 2002, published 2010).
Where a name gives a salt, the structure may show the parent alone.

Tests used:
[1] = tested on: patient with depression and anxiety; assay type: in vivo, human; details: for side effects of previous medication: in vivo; for effect of previous medication on depression, stress and anxiety: person, earlier treatment with both medications
Description: A patient, who suffered from depression and anxiety, was previously treated with PAXIL® (paroxetine hydrochloride), a selective serotonin reuptake inhibitor (SSRI) and Trazodone HCl, a serotonin 2A antagonist and reuptake inhibitor (SARI). […] When they stopped taking the medication 6 months later, their depression and anxiety symptoms returned.
They also noted that their eyesight and visual clarity have improved.

[2] = local anesthetic use; cited from earlier work
[3] = tested on: patient with moderate depression, OCD and ADHD; assay: Depression, OCD and ADHD case report (Example 8); details: patient history
Description: The patients were instructed to take the contents of 1 vial on an empty stomach 30 to 45 minutes prior to breakfast by dissolving under the tongue (sublingual infusion). The treatment regimen consisted of weekly cycles of five days of taking the composition and two days off the composition. The cycle was repeated. The patients were asked to drink at least one 8-ounce glass of water immediately after taking the composition and an additional 8-ounce glass of water within the first hour. Also, the patients were asked to avoid caffeine usage for at least 2 to 3 hours after the infusion. […] The patients were warned against taking the composition in a combination with antibiotics and/or antidepressants.

## Fc1ccc([C@@H]2CCNC[C@H]2COc2ccc3c(c2)OCO3)cc1 [PAXIL, paroxetine hydrochloride]
[1]
  side effects of previous medication: severe side effects, including a loss of short-term memory, constipation, decreased libido, and disturbed sleep
  effect of previous medication on depression, stress and anxiety: helped to decrease depression, stress, and anxiety

## CCN(CC)CCOC(=O)c1ccc(N)cc1.Cl [Procaine, 2-diethylaminoethyl p-aminobenzoate hydrochloride]
[2]
  duration of anesthesia: approximately 1 hour
  time to anesthesia: 2 to 5 min

## COC(=O)C(c1ccccc1)C1CCCCN1 (centres unmarked) [Ritalin]
[3]
  side effects of previous medication: general listlessness continued along with general malaise and lack of focus

## O=c1n(CCCN2CCN(c3cccc(Cl)c3)CC2)nc2ccccn12 [Trazodone HCl]
[1]
  side effects of previous medication: severe side effects, including a loss of short-term memory, constipation, decreased libido, and disturbed sleep
  effect of previous medication on depression, stress and anxiety: helped to decrease depression, stress, and anxiety

## CC(NC(C)(C)C)C(=O)c1cccc(Cl)c1 (centres unmarked) [Wellbutrin]
[3]
  side effects of previous medication: paranoia and acute panic symptoms
